Converted amounts (≈) assume the structure as drawn. Like-named read-outs stand apart in the source and are kept apart here.
How the values were obtained:
[1] = tested on: influenza virus (A/Puerto Rico/8/34 (H1N1), PR/8); test: organism not typed; format: cell-based; conditions: for IC50: read-out: IC50 against H1N1 (CPE inhibition); for selectivity index (SI): H1N1 IC50 and MDCK CC50
[2] = in vitro; conditions: dog
[3] = MDCK cells infected with A/Puerto Rico/8/34 (H1N1), 48 h post-infection, crystal violet staining

Compound | IC50 [1, 3] | further results
O=Cc1ccc2n1[C@@H](Cc1ccccc1)C(=O)OC2 [Compound 6, (S)-4-benzyl-3-oxo-3,4-dihydro-1H-pyrrolo[2,1-c][1,4]oxazine-6-carbaldehyde] | > 50 µg/mL | 
CC(C)[C@H]1C(=O)OCc2ccc(C=O)n21 [Compound 4, (S)-4-isopropyl-3-oxo-3,4-dihydro-1H-pyrrolo[2,1-c][1,4]oxazine-6-carbaldehyde] | > 50 µg/mL | 
OC[C@H](O)[C@@H](O)Cc1cncc(-c2ccco2)n1 [Compound 1, 2-(furan-2-yl)-6-(2S,3S,4-trihydroxybutyl)pyrazine] | > 50 µg/mL | 
COCc1ccc(C=O)[nH]1 [Compound 13, 5-(methoxymethyl)-1H-pyrrole-2-carbaldehyde] | > 50 µg/mL | 
Oc1nccc2c1[nH]c1ccccc12 [Compound 9, 1-hydroxy-β-carboline] | 25 µg/mL (≈ 136 µM) | selectivity index (SI) [1]: 16.1; CC50 at 36 h [2]: 403 ± 31.4 µg/mL (≈ 2190 µM)
O=Cc1c[nH]c2ccccc12 [Compound 11, 1H-indole-3-carboxaldehyde] | 45.9 µg/mL (≈ 316 µM) | selectivity index (SI) [1]: 11.4; CC50 at 36 h [2]: 522 ± 24.5 µg/mL (≈ 3600 µM)
CC(C)C[C@H]1C(=O)OCc2ccc(C=O)n21 [Compound 3, (S)-4-isobutyl-3-oxo-3,4-dihydro-1H-pyrrolo[2,1-c][1,4]oxazine-6-carbaldehyde] | > 50 µg/mL | 
OCc1ccc(-c2nccc3c2[nH]c2ccccc23)o1 [Compound 8, perlolyrine] | 38.3 µg/mL (≈ 145 µM) | selectivity index (SI) [1]: 3.0; CC50 at 36 h [2]: 116 ± 12.1 µg/mL (≈ 440 µM)
NC(=O)c1ncn([C@@H]2O[C@H](CO)[C@@H](O)[C@H]2O)n1 [Ribavirin, ribavirin, reference compound] | 23.1 µg/mL (≈ 94.6 µM) | selectivity index (SI) [1]: 32.2; CC50 at 36 h [2]: 744 ± 18.5 µg/mL (≈ 3050 µM)
(4S)-4-(2-methylbutyl)-3-oxo-3,4-dihydro-1H-pyrrolo[2,1-c][1,4]oxazine-6-carbaldehyde [Compound 5] |  | IC50 against H1N1 (CPE inhibition) [1, 3]: > 50 µg/mL
Cc1cc2nc3[nH]c(=O)[nH]c(=O)c3nc2cc1C [Compound 10, lumichrome] |  | IC50 ([1]; MDCK, 48 h): 39.7 µg/mL (≈ 164 µM)
O=C(CO)c1c[nH]c2ccccc12 [Compound 12, 2-hydroxy-1-(1H-indol-3-yl)ethanone] | > 50 µg/mL | 
OC[C@H](O)[C@@H](O)Cc1cnc(-c2ccco2)cn1 [Compound 2, 2-(furan-2-yl)-5-(2S,3S,4-trihydroxybutyl)pyrazine] | > 50 µg/mL | 
O=C(O)c1cc2c([nH]c3ccccc32)c(-c2ccc(CO)o2)n1 [Compound 7, flazin] | > 50 µg/mL | 

Source: publication PMC3917282, “Alkaloids from the Mangrove-Derived Actinomycete Jishengella endophytica 161111” (Marine Drugs, 2014)
